Laboratory results taken from patent US20220151229A1, “Synergistic Herbicidal Combinations” (Clariant International Ltd., priority 2019, published 2022).

Assays:
Format in all cases: in vivo
Lolium perenne - LOLPE = test: Greenhouse post-emergence herbicide trial, Lolium perenne; conditions: 200 L/ha, A1 7.5 % w/w
Source text: (§1) Standard post emergence herbicide application procedures were used, as described below, to apply inventive compounds in combination with sulfonylurea herbicides.
(§2) Seed of monocotyledonous and dicotyledonous harmful plants such as Brassica napus (BRSNW) Abutilon theophrasti (ABUTH), Alopecurus myosuroides (ALOMY), Amaranthus retroflexus (AMARE), Digitaria Sanguinalis (DIGSA), Echinochloa crus-galli (ECHCG), Erigeron canadensis (ERICA), Galium aparine (GALAP), Lolium perenne (LOLPE), Sectaria viridis (SETVI), Solanun nigrum (SOLNI), Viola arvensis (VIOAR) were sowed in 18 cm^2 pots. The plants were placed in a greenhouse under controlled environmental conditions, and sub-irrigation. About one week after emergence, seedlings were thinned as needed, including removal of any unhealthy or abnormal plants, to create a uniform series of test pots.
(§3) The plants were maintained for the duration of the test in the greenhouse, where they received a mean of 70 μmol m-2 s-1 of light per day/night. Temperatures averages about 24° C. during the day and about 20° C. during the night. Plants were sub-irrigated throughout the test to ensure adequate soil moisture levels.
(§4) Pots were assigned to different treatment in a randomized experimental design. A set of pots was left untreated as a reference against which effects of the treatments could later be evaluated. Application of tested formulations was made in a spray cabin model 01S-15E designed by CheckTec using the following parameters: • Two edge nozzle Lechler OC2, 200 L/ha, 3 bars. • Two edge nozzle Lechler OC3, 500 L/ha, 3 bars.
(§5) The distance of the nozzle from the plants was between 50 to 53 cm. and the nozzle spacing was 50 cm.
(§6) After treatment, pots were returned to the greenhouse until ready for evaluation. Evaluations were performed at different times after application (DAT: days after treatment), depending on the experiment.
(§7) For evaluation of herbicidal effectiveness, all plants in the test were examined by a single technician, who recorded percent control, a visual measurement of the effectiveness of each treatment by comparison with untreated plants. […] The reported % control values represent the average for all replicates of each treatment.
(§8) Iodosulfuron-methyl-sodium and Nicosulfuron were applied as dilutions of the active ingredient in water.

Brassica napus - BRSNW = test: Greenhouse post-emergence herbicide trial, Brassica napus; conditions: 200 L/ha, A1 7.5 % w/w
Source text: as §1, §2, §3, §4, §5, §6, §7, §8

Galium aparine - GALAP = test: Greenhouse post-emergence herbicide trial, Galium aparine; conditions: 200 L/ha, A1 7.5 % w/w
Source text: as §1, §2, §3, §4, §5, §6, §7, §8

Solanum nigrum - SOLNI = test: Greenhouse post-emergence herbicide trial, Solanum nigrum
Source text: as §1, §2, §3, §4, §5, §6, §7, §8

Sectaria Viridis - SETVI = test: Greenhouse post-emergence herbicide trial, Sectaria Viridis; conditions: 200 L/ha, A1 7.5 % w/w
Source text: as §1, §2, §3, §4, §5, §6, §7, §8

With “Pelargonic acid 6 EO ester methyl ether [A1]” as the substance, how does the Effectiveness control (Lolium perenne - LOLPE; 1 DAT) read?
Its Effectiveness control is 11.50%.

What about the Effectiveness control (Lolium perenne - LOLPE; 2 DAT) of the same substance?
Its Effectiveness control is 11.50%.

What about the Effectiveness control (Lolium perenne - LOLPE; 7 DAT) of the same substance?
Its Effectiveness control is 5.00%.

What about the Effectiveness control (Lolium perenne - LOLPE; 10 DAT) of the same substance?
The Effectiveness control was 0.00%.

And the Effectiveness control (Lolium perenne - LOLPE; 16 DAT)?
The Effectiveness control was 0.00%.

And the Effectiveness control (Lolium perenne - LOLPE; 22 DAT)?
Its Effectiveness control is 0.00%.

What about the Effectiveness control (Lolium perenne - LOLPE; 28 DAT) of the same substance?
The Effectiveness control was 0.00%.

And the Effectiveness control (Brassica napus - BRSNW; 1 DAT)?
Its Effectiveness control is 74.25%.

What about the Effectiveness control (Brassica napus - BRSNW; 2 DAT) of the same substance?
The Effectiveness control was 78.00%.

What about the Effectiveness control (Brassica napus - BRSNW; 7 DAT) of the same substance?
Its Effectiveness control is 75.00%.

And the Effectiveness control (Brassica napus - BRSNW; 10 DAT)?
Its Effectiveness control is 56.25%.

And the Effectiveness control (Brassica napus - BRSNW; 16 DAT)?
Its Effectiveness control is 39.25%.

And the Effectiveness control (Brassica napus - BRSNW; 22 DAT)?
Its Effectiveness control is 33.50%.

What about the Effectiveness control (Brassica napus - BRSNW; 28 DAT) of the same substance?
The Effectiveness control was 32.50%.

What about the Effectiveness control (Galium aparine - GALAP; 1 DAT) of the same substance?
Its Effectiveness control is 31.75%.

And the Effectiveness control (Galium aparine - GALAP; 2 DAT)?
Its Effectiveness control is 34.00%.

And the Effectiveness control (Galium aparine - GALAP; 7 DAT)?
The Effectiveness control was 35.75%.

And the Effectiveness control (Galium aparine - GALAP; 10 DAT)?
Its Effectiveness control is 20.00%.

What about the Effectiveness control (Galium aparine - GALAP; 16 DAT) of the same substance?
Its Effectiveness control is 10.75%.

And the Effectiveness control (Galium aparine - GALAP; 22 DAT)?
Its Effectiveness control is 10.75%.

And the Effectiveness control (Galium aparine - GALAP; 28 DAT)?
Its Effectiveness control is 10.75%.

And the Effectiveness control (Solanum nigrum - SOLNI; 200 L/ha, A1 0.1 % w/w, 1 DAT)?
The Effectiveness control was 0.00%.

What about the Effectiveness control (Solanum nigrum - SOLNI; 200 L/ha, A1 0.1 % w/w, 2 DAT) of the same substance?
Its Effectiveness control is 0.00%.

And the Effectiveness control (Solanum nigrum - SOLNI; 200 L/ha, A1 0.1 % w/w, 7 DAT)?
The Effectiveness control was 0.00%.

What about the Effectiveness control (Solanum nigrum - SOLNI; 200 L/ha, A1 0.1 % w/w, 15 DAT) of the same substance?
Its Effectiveness control is 0.00%.

And the Effectiveness control (Solanum nigrum - SOLNI; 200 L/ha, A1 0.1 % w/w, 21 DAT)?
The Effectiveness control was 0.00%.

What about the Effectiveness control (Solanum nigrum - SOLNI; 200 L/ha, A1 2.5 % w/w, 1 DAT) of the same substance?
Its Effectiveness control is 0.00%.

And the Effectiveness control (Solanum nigrum - SOLNI; 200 L/ha, A1 2.5 % w/w, 2 DAT)?
The Effectiveness control was 0.00%.

What about the Effectiveness control (Solanum nigrum - SOLNI; 200 L/ha, A1 2.5 % w/w, 7 DAT) of the same substance?
The Effectiveness control was 0.00%.

And the Effectiveness control (Solanum nigrum - SOLNI; 200 L/ha, A1 2.5 % w/w, 15 DAT)?
The Effectiveness control was 0.00%.

And the Effectiveness control (Solanum nigrum - SOLNI; 200 L/ha, A1 2.5 % w/w, 21 DAT)?
Its Effectiveness control is 0.00%.

What about the Effectiveness control (Solanum nigrum - SOLNI; 200 L/ha, A1 5 % w/w, 1 DAT) of the same substance?
The Effectiveness control was 0.75%.

What about the Effectiveness control (Solanum nigrum - SOLNI; 200 L/ha, A1 5 % w/w, 2 DAT) of the same substance?
Its Effectiveness control is 3.50%.

What about the Effectiveness control (Solanum nigrum - SOLNI; 200 L/ha, A1 5 % w/w, 7 DAT) of the same substance?
The Effectiveness control was 3.50%.

And the Effectiveness control (Solanum nigrum - SOLNI; 200 L/ha, A1 5 % w/w, 15 DAT)?
The Effectiveness control was 0.00%.

And the Effectiveness control (Solanum nigrum - SOLNI; 200 L/ha, A1 5 % w/w, 21 DAT)?
The Effectiveness control was 0.00%.

And the Effectiveness control (Solanum nigrum - SOLNI; 200 L/ha, A1 10 % w/w, 1 DAT)?
The Effectiveness control was 25.00%.

What about the Effectiveness control (Solanum nigrum - SOLNI; 200 L/ha, A1 10 % w/w, 2 DAT) of the same substance?
The Effectiveness control was 48.50%.

And the Effectiveness control (Solanum nigrum - SOLNI; 200 L/ha, A1 10 % w/w, 7 DAT)?
The Effectiveness control was 50.50%.

And the Effectiveness control (Solanum nigrum - SOLNI; 200 L/ha, A1 10 % w/w, 15 DAT)?
Its Effectiveness control is 47.50%.

And the Effectiveness control (Solanum nigrum - SOLNI; 200 L/ha, A1 10 % w/w, 21 DAT)?
The Effectiveness control was 38.75%.

What about the Effectiveness control (Solanum nigrum - SOLNI; 500 L/ha, A1 0.1 % w/w, 1 DAT) of the same substance?
Its Effectiveness control is 0.00%.

What about the Effectiveness control (Solanum nigrum - SOLNI; 500 L/ha, A1 0.1 % w/w, 2 DAT) of the same substance?
The Effectiveness control was 0.00%.

And the Effectiveness control (Solanum nigrum - SOLNI; 500 L/ha, A1 0.1 % w/w, 7 DAT)?
The Effectiveness control was 0.00%.

What about the Effectiveness control (Solanum nigrum - SOLNI; 500 L/ha, A1 0.1 % w/w, 15 DAT) of the same substance?
Its Effectiveness control is 0.00%.

And the Effectiveness control (Solanum nigrum - SOLNI; 500 L/ha, A1 0.1 % w/w, 21 DAT)?
The Effectiveness control was 0.00%.

And the Effectiveness control (Solanum nigrum - SOLNI; 500 L/ha, A1 2.5 % w/w, 1 DAT)?
Its Effectiveness control is 10.00%.

And the Effectiveness control (Solanum nigrum - SOLNI; 500 L/ha, A1 2.5 % w/w, 2 DAT)?
The Effectiveness control was 21.25%.

What about the Effectiveness control (Solanum nigrum - SOLNI; 500 L/ha, A1 2.5 % w/w, 7 DAT) of the same substance?
The Effectiveness control was 13.75%.

And the Effectiveness control (Solanum nigrum - SOLNI; 500 L/ha, A1 2.5 % w/w, 15 DAT)?
Its Effectiveness control is 7.75%.

And the Effectiveness control (Solanum nigrum - SOLNI; 500 L/ha, A1 2.5 % w/w, 21 DAT)?
The Effectiveness control was 5.00%.

What about the Effectiveness control (Solanum nigrum - SOLNI; 500 L/ha, A1 5 % w/w, 1 DAT) of the same substance?
The Effectiveness control was 26.00%.

What about the Effectiveness control (Solanum nigrum - SOLNI; 500 L/ha, A1 5 % w/w, 2 DAT) of the same substance?
Its Effectiveness control is 42.50%.

What about the Effectiveness control (Solanum nigrum - SOLNI; 500 L/ha, A1 5 % w/w, 7 DAT) of the same substance?
The Effectiveness control was 32.50%.

What about the Effectiveness control (Solanum nigrum - SOLNI; 500 L/ha, A1 5 % w/w, 15 DAT) of the same substance?
Its Effectiveness control is 28.75%.

What about the Effectiveness control (Solanum nigrum - SOLNI; 500 L/ha, A1 5 % w/w, 21 DAT) of the same substance?
Its Effectiveness control is 27.50%.

What about the Effectiveness control (Solanum nigrum - SOLNI; 500 L/ha, A1 10 % w/w, 1 DAT) of the same substance?
Its Effectiveness control is 65.50%.

What about the Effectiveness control (Solanum nigrum - SOLNI; 500 L/ha, A1 10 % w/w, 2 DAT) of the same substance?
Its Effectiveness control is 75.50%.

And the Effectiveness control (Solanum nigrum - SOLNI; 500 L/ha, A1 10 % w/w, 7 DAT)?
The Effectiveness control was 72.50%.

What about the Effectiveness control (Solanum nigrum - SOLNI; 500 L/ha, A1 10 % w/w, 15 DAT) of the same substance?
Its Effectiveness control is 63.75%.

What about the Effectiveness control (Solanum nigrum - SOLNI; 500 L/ha, A1 10 % w/w, 21 DAT) of the same substance?
Its Effectiveness control is 53.00%.

What about the Effectiveness control (Sectaria Viridis - SETVI; 1 DAT) of the same substance?
Its Effectiveness control is 19.25%.

And the Effectiveness control (Sectaria Viridis - SETVI; 2 DAT)?
The Effectiveness control was 21.25%.

And the Effectiveness control (Sectaria Viridis - SETVI; 7 DAT)?
Its Effectiveness control is 21.25%.

What about the Effectiveness control (Sectaria Viridis - SETVI; 10 DAT) of the same substance?
Its Effectiveness control is 20.00%.

And the Effectiveness control (Sectaria Viridis - SETVI; 16 DAT)?
Its Effectiveness control is 16.00%.

What about the Effectiveness control (Sectaria Viridis - SETVI; 22 DAT) of the same substance?
Its Effectiveness control is 16.00%.

And the Effectiveness control (Sectaria Viridis - SETVI; 28 DAT)?
The Effectiveness control was 0.00%.
